Assay: xn = mol fraction of the nth substance listed
Conditions: 101.3 kPa, Liquid; for speed of sound: Single path-length method; for mass density: Vibrating tube method

CC(=O)[O-].OCC[NH2+]CCO [2,2'-azanediylbis(ethanol) acetate] + CC(C)O
Conditions | mass density, 293.15 K [kg/m3] | mass density, 303.15 K [kg/m3] | mass density, 313.15 K [kg/m3] | mass density, 323.15 K [kg/m3] | speed of sound, 293.15 K [m/s] | speed of sound, 303.15 K [m/s] | speed of sound, 313.15 K [m/s] | speed of sound, 323.15 K [m/s]
x1 = 0.102 | 857.7 | 849.5 | 841.1 | 832.5 | 1233.4 | 1200.3 | 1167.1 | 1133.6
x1 = 0.2 | 915.4 | 907.6 | 899.4 | 891.4 | 1301.5 | 1269.6 | 1237.8 | 1205.8
x1 = 0.299 | 965.3 | 957.7 | 949.8 | 942.3 | 1372.4 | 1341.2 | 1310.1 | 1279.1
x1 = 0.398 | 1009 | 1001 | 993.2 | 986.6 | 1448.2 | 1416.7 | 1386.3 | 1355.2
x1 = 0.502 | 1048 | 1041 | 1034 | 1025 | 1530.5 | 1498.3 | 1468.4 | 1438.7
x1 = 0.59 | 1076 | 1069 | 1061 | 1056 | 1596.5 | 1561.8 | 1530.4 | 1498.8
x1 = 0.696 | 1109 | 1102 | 1095 | 1089 | 1675.3 | 1638.8 | 1607 | 1576.7
x1 = 0.799 | 1137 | 1131 | 1124 | 1118 | 1756.3 | 1717.6 | 1684.7 | 1653.8
x1 = 0.9 | 1162 | 1155 | 1149 | 1142 | 1828.4 | 1782.1 | 1746.8 | 1714.4
x1 = 1 | 1180 | 1173 | 1167 | 1160 | 1884.7 | 1828.2 | 1788.6 | 1756

CC(=O)[O-].OCC[NH2+]CCO [2,2'-azanediylbis(ethanol) acetate] + CCCO
Conditions | mass density, 293.15 K [kg/m3] | mass density, 303.15 K [kg/m3] | mass density, 313.15 K [kg/m3] | mass density, 323.15 K [kg/m3] | speed of sound, 293.15 K [m/s] | speed of sound, 303.15 K [m/s] | speed of sound, 313.15 K [m/s] | speed of sound, 323.15 K [m/s]
x1 = 0.096 | 869.5 | 861.6 | 853.5 | 845.4 | 1286.3 | 1253.5 | 1221.2 | 1188.8
x1 = 0.199 | 929 | 921.2 | 913.4 | 905.7 | 1352.7 | 1321 | 1289.8 | 1258.8
x1 = 0.295 | 975 | 967.5 | 959.9 | 952 | 1415.2 | 1384.2 | 1353.6 | 1323.1
x1 = 0.4 | 1018 | 1012 | 1004 | 996.6 | 1488.2 | 1457.2 | 1427.3 | 1397.4
x1 = 0.501 | 1054 | 1047 | 1040 | 1033 | 1556.5 | 1524.7 | 1494.6 | 1465.4
x1 = 0.599 | 1085 | 1078 | 1072 | 1065 | 1626.4 | 1590.7 | 1559.2 | 1529.2
x1 = 0.697 | 1113 | 1106 | 1099 | 1093 | 1701.1 | 1657.4 | 1623.2 | 1592.3
x1 = 0.801 | 1137 | 1131 | 1124 | 1118 | 1756.5 | 1720.1 | 1688.9 | 1659.2
x1 = 0.901 | 1160 | 1153 | 1146 | 1140 | 1817.8 | 1772.9 | 1738.1 | 1707.4
x1 = 1 | 1180 | 1173 | 1167 | 1160 | 1884.7 | 1828.2 | 1788.6 | 1756

CC(=O)[O-].[NH3+]CCO [2-hydroxyethylammonium acetate] + CC(C)O
Conditions | mass density, 293.15 K [kg/m3] | mass density, 303.15 K [kg/m3] | mass density, 313.15 K [kg/m3] | mass density, 323.15 K [kg/m3] | speed of sound, 293.15 K [m/s] | speed of sound, 303.15 K [m/s] | speed of sound, 313.15 K [m/s] | speed of sound, 323.15 K [m/s]
x1 = 0.102 | 840.8 | 832.7 | 824.4 | 815.7 | 1218.6 | 1184.9 | 1151 | 1116.9
x1 = 0.2 | 888.4 | 880.8 | 872.9 | 864.8 | 1275.2 | 1242.9 | 1210.5 | 1177.8
x1 = 0.299 | 930.8 | 923.5 | 916 | 908.3 | 1334 | 1302.6 | 1271.5 | 1240.1
x1 = 0.397 | 970.4 | 963.3 | 956.2 | 948.5 | 1397.5 | 1366.2 | 1335.9 | 1305.6
x1 = 0.493 | 1007 | 999.7 | 992.8 | 985.5 | 1465.1 | 1435.1 | 1405.8 | 1376.6
x1 = 0.6 | 1042 | 1037 | 1030 | 1023 | 1549.8 | 1516.7 | 1487.9 | 1460.2
x1 = 0.692 | 1072 | 1066 | 1060 | 1052 | 1620.1 | 1588.6 | 1559.5 | 1532.3
x1 = 0.798 | 1103 | 1097 | 1091 | 1085 | 1701.8 | 1666.8 | 1638.2 | 1612
x1 = 0.894 | 1129 | 1124 | 1118 | 1112 | 1779 | 1742.8 | 1713.8 | 1687.8
x1 = 1 | 1150 | 1144 | 1139 | 1132 | 1812.9 | 1781.2 | 1754.7 | 1730.9

CC(=O)[O-].[NH3+]CCO [2-hydroxyethylammonium acetate] + CCCO
Conditions | mass density, 293.15 K [kg/m3] | mass density, 303.15 K [kg/m3] | mass density, 313.15 K [kg/m3] | mass density, 323.15 K [kg/m3] | speed of sound, 293.15 K [m/s] | speed of sound, 303.15 K [m/s] | speed of sound, 313.15 K [m/s] | speed of sound, 323.15 K [m/s]
x1 = 0.101 | 855.6 | 847.8 | 839.9 | 831.9 | 1274.5 | 1241.6 | 1208.9 | 1176.3
x1 = 0.199 | 900 | 892.5 | 884.8 | 877.1 | 1323.5 | 1291.7 | 1260.2 | 1228.7
x1 = 0.298 | 941.7 | 934.5 | 927.2 | 919.6 | 1377.3 | 1346.4 | 1316 | 1285.6
x1 = 0.401 | 981.1 | 974.1 | 967.3 | 960.3 | 1437.7 | 1407.8 | 1378.3 | 1348.9
x1 = 0.502 | 1016 | 1010 | 1003 | 996.3 | 1502 | 1472.9 | 1444.4 | 1416.3
x1 = 0.592 | 1046 | 1040 | 1033 | 1027 | 1561.1 | 1532.2 | 1504.3 | 1477
x1 = 0.681 | 1073 | 1067 | 1061 | 1055 | 1624.3 | 1595.1 | 1567.7 | 1541.3
x1 = 0.795 | 1104 | 1098 | 1092 | 1086 | 1711.5 | 1678.6 | 1650.8 | 1624
x1 = 0.89 | 1130 | 1124 | 1118 | 1112 | 1777.8 | 1743.4 | 1715.9 | 1690.2
x1 = 1 | 1150 | 1144 | 1139 | 1133 | 1812.9 | 1781.2 | 1754.7 | 1730.9
